PMC12023841, “Unlocking the Gates: A Novel Diagnostic Molecule for Quantifying Efflux Levels in Gram‐Positive Bacteria” (Advanced Healthcare Materials, 2025)
“And” between values parts separate entries of the source, which are not always exact repeats. Identical values can stand only once. “Also recorded” adds a separate entry of the source. Like-named read-outs stand apart in the source and are kept apart here.

Assays:
[1] = In-vitro cytotoxicity test, Neutral Red uptake; format: cell-based, Human; conditions: human, HaCaT keratinocytes, 24 hours, read-out: Cell viability (% as compared to the negative control), replicates
Protocol: (§1) Method: The in-vitro cytotoxicity test assessed cell viability based on Neutral Red uptake, a dye that accumulates in lysosomes and decreases in response to membrane damage. HaCaT keratinocytes were cultured in DMEM with 10% calf serum and incubated at 37°C, 5% CO₂. Cells were seeded in 96-well plates, treated with eight concentrations of the 5a4, and incubated for 24 hours. After washing, cells were exposed to Neutral Red medium for 3 hours, followed by washing and destaining. Optical density (OD540) was measured using a fluorescence reader, and IC50 values were calculated using Phototox Version 2.0, comparing treated wells to untreated controls.^[10]

[2] = test system: HaCaT keratinocytes cells; test: In-vitro cytotoxicity test, Neutral Red uptake; format: cell-based, Human
Protocol: as §1

[3] = Fluorescence intensity measurement of phenazinium derivatives; format: physicochemical; conditions: 1 µg mL^−1
Protocol: A stock solution of synthesized phenazinium compounds (10 mg mL^-1) was prepared in DMSO solvent. […] An aliquot (100 μL) of this working stock was then added to the black flat bottomed, half-area, 96-well microplates (CELLSTAR, Greiner Bio-One, France). The plate was then placed on a fluorescence spectrometer (Tecan, Infinite […], Lyon, France) and scanned for emission spectra (560-800 nm) at a constant excitation […].

[4] = test system: SA 1199‐B (norA overexpressing); test: microbe, parasite or virus in culture; format: cell-based, Staphylococcus aureus; conditions: from Table 1
[5] = test system: Staphylococcus aureus efflux mutants and clinical strains
[6] = test system: HaCaT keratinocytes cells; test: Micronucleus assay; format: cell-based, Human
[7] = test system: Staphylococcus aureus ATCC 25923 (Reference, basal); test: MIC, broth microdilution (CLSI); format: cell-based; conditions: ATCC25923
[8] = test system: SA 1199 (Wild‐type, basal); test: MIC, broth microdilution (CLSI); format: cell-based; conditions: Staphylococcus aureus
[9] = Solution‐state stability test in MH‐II broth; format: physicochemical; conditions: 512–1 µg mL^−1, 37 °C for a day, centrifuged
Protocol: Before accessing the minimal inhibitory concentration (MIC), each phenazinium derivative was subjected to a solution‐state stability test. For this experiment, each derivative was solubilized in DMSO to achieve a primary stock solution (20 mg mL^−1). This stock was further diluted in MilliQ to achieve a working stock solution (10 mg mL^−1). […] The tubes were placed in an incubator at 37 °C for a day and later centrifuged at 25 000 rpm for 25 min.

[10] = 0.025 µg/ml, with UVA/visible Irradiation
[11] = 0.05 µg/ml, with UVA/visible Irradiation
[12] = 0.1 µg/ml, with UVA/visible Irradiation
[13] = 0.25 µg/ml, with UVA/visible Irradiation

## CCCCNc1ccc2nc3cc(NCCOC)c(N)cc3[n+](CCC)c2c1 [5a4]
[1]; 0.00025 µg/ml
  viability at 24 h, 0.00025 µg/ml: > 96%
[1]; 0.0005 µg/ml
  viability at 24 h, 0.0005 µg/ml: 98.9%
[1]; 0.001 µg/ml
  viability at 24 h, 0.001 µg/ml: 87.3%
[1]; 0.025 µg/ml
  viability at 24 h, 0.025 µg/ml: 80%
[1]; 0.05 µg/ml
  viability at 24 h, 0.05 µg/ml: 66.6%
[1]; 0.1 µg/ml
  viability at 24 h, 0.1 µg/ml: 57.8%
[1]; 0.25 µg/ml
  viability at 24 h, 0.25 µg/ml: 43.4%
[1]; 0.5 µg/ml
  viability at 24 h, 0.5 µg/ml: 37.3%
[1]; 1 µg/ml
  viability at 24 h, 1 µg/ml: 11.6%
[1]; 2.5 µg/ml
  viability at 24 h, 2.5 µg/ml: ~7.91%
[2]
  cytotoxicity on HaCaT (in words): dose‐dependent cytotoxicity
[2]; 0.00025 µg/ml, 24 hours
  Cell viability (% as compared to the negative control), replicates: 98.73% and 100.16% and 98.52%
[2]; 0.0005 µg/ml, 24 hours
  Cell viability (% as compared to the negative control), replicates: 98.86% and 96.05%
[2]; 0.001 µg/ml, 24 hours
  Cell viability (% as compared to the negative control), replicates: 86.83% and 87.15%
[2]; 0.025 µg/ml, 24 hours
  Cell viability (% as compared to the negative control), replicates: 80.96% and 90.16%
[2]; 0.05 µg/ml, 24 hours
  Cell viability (% as compared to the negative control), replicates: 71.87% and 67.22%
[2]; 0.1 µg/ml, 24 hours
  Cell viability (% as compared to the negative control), replicates: 60.91% and 61.94%
[2]; 0.25 µg/ml, 24 hours
  Cell viability (% as compared to the negative control), replicates: 43.67% and 45.37%
[2]; 0.5 µg/ml, 24 hours
  Cell viability (% as compared to the negative control), replicates: 36.42% and 39.37%
[2]; 1 µg/ml, 24 hours
  Cell viability (% as compared to the negative control), replicates: 8.29% and 13.84%
[2]; 2.5 µg/ml, 24 hours
  Cell viability (% as compared to the negative control), replicates: 7.17% and 8.13%
[2]; Homo sapiens, HaCaT, Neutral Red uptake, 24 hours, read-out: IC50 (HaCaT cell viability)
  IC50: 0.1 to 0.25 µg/mL
[3]
  fluorescence intensity (rank among derivatives): maximum fluorescence intensity
[4]
  MIC difference between NorA wild‐type, overexpressing and deleted mutants: fourfold or greater difference
[5]; strain ATCC25923
  Efflux detection method 5a4: Negative
[5]; strain ATCC25923_EtBr
  Efflux detection method 5a4: Positive
[5]; strain BIOS-H1
  Efflux detection method 5a4: Negative
[5]; strain BIOS-H2
  Efflux detection method 5a4: Negative
[5]; strain BIOS-H3
  Efflux detection method 5a4: Negative
[5]; strain BIOS-H5
  Efflux detection method 5a4: Negative
[5]; strain BIOS-H6
  Efflux detection method 5a4: Negative
[5]; strain BIOS-H12
  Efflux detection method 5a4: Negative
[5]; strain BIOS-H13
  Efflux detection method 5a4: Negative
[5]; strain BIOS-H17
  Efflux detection method 5a4: Negative
[5]; strain BIOS-H20
  Efflux detection method 5a4: Negative
[5]; strain BIOS-H21
  Efflux detection method 5a4: Negative
[5]; strain BIOS-H22
  Efflux detection method 5a4: Negative
[5]; strain BIOS-H25
  Efflux detection method 5a4: Negative
[5]; strain BIOS-H28
  Efflux detection method 5a4: Negative
[5]; strain BIOS-H29
  Efflux detection method 5a4: Negative
[5]; strain BIOS-H30
  Efflux detection method 5a4: Negative
[5]; strain BIOS-H32
  Efflux detection method 5a4: Negative
[5]; strain BIOS-V21
  Efflux detection method 5a4: Negative
[5]; strain BIOS-V31
  Efflux detection method 5a4: Negative
[5]; strain BIOS-V60
  Efflux detection method 5a4: Negative
[5]; strain BIOS-V61
  Efflux detection method 5a4: Negative
[5]; strain BIOS-V62
  Efflux detection method 5a4: Negative
[5]; strain BIOS-V74
  Efflux detection method 5a4: Negative
[5]; strain BIOS-V75
  Efflux detection method 5a4: Negative
[5]; strain BIOS-V85
  Efflux detection method 5a4: Negative
[5]; strain BIOS-V118
  Efflux detection method 5a4: Negative
[5]; strain BIOS-V128
  Efflux detection method 5a4: Negative
[5]; strain BIOS-V147
  Efflux detection method 5a4: Negative
[5]; strain BIOS-V151
  Efflux detection method 5a4: Negative
[5]; strain BIOS-V156
  Efflux detection method 5a4: Negative
[5]; strain BIOS-V157
  Efflux detection method 5a4: Negative
[5]; strain BIOS-V158
  Efflux detection method 5a4: Negative
[5]; strain BIOS-V203
  Efflux detection method 5a4: Negative
[5]; strain BIOS-V245
  Efflux detection method 5a4: Negative
[5]; strain BIOS-V250
  Efflux detection method 5a4: Negative
[5]; strain BIOS-V257
  Efflux detection method 5a4: Negative
[5]; strain BIOS-V279
  Efflux detection method 5a4: Negative
[5]; strain BIOS-V295
  Efflux detection method 5a4: Negative
[5]; strain SA-1199
  Efflux detection method 5a4: Negative
[5]; strain SA-1199B
  Efflux detection method 5a4: Positive
[5]; strain SA-K1712
  Efflux detection method 5a4: Negative
[5]; strain SA-K1748
  Efflux detection method 5a4: Positive
[5]; strain SA-K1758
  Efflux detection method 5a4: Negative
[5]; strain SM 1
  Efflux detection method 5a4: Positive
[5]; strain SM 2
  Efflux detection method 5a4: Negative
[5]; strain SM 3
  Efflux detection method 5a4: Negative
[5]; strain SM 4
  Efflux detection method 5a4: Negative
[5]; strain SM 5
  Efflux detection method 5a4: Negative
[5]; strain SM 6
  Efflux detection method 5a4: Negative
[5]; strain SM 7
  Efflux detection method 5a4: Negative
[5]; strain SM 8
  Efflux detection method 5a4: Negative
S. epidermidis strains; […]
  Efflux detection method 5a4: Negative
S. epidermidis strains; strain ATCC12228
  Efflux detection method 5a4: Negative
S. epidermidis strains; strain ATCC12228_EtBr
  Efflux detection method 5a4: Positive
S. epidermidis strains; strain BIOS-V24
  Efflux detection method 5a4: Negative
S. epidermidis strains; strain BIOS-V282
  Efflux detection method 5a4: Positive
[6]
  genotoxicity (in words): no clear genotoxicity
[6]; [10]
  % PI (Proliferative Index): 99.2%
  MNC (micronucleated cells): 11 ± 1.4 per 1,000
[6]; 0.025 µg/ml, without S9 mix
  % PI (Proliferative Index): 99.8%
  MNC (micronucleated cells): 9 ± 1.4 per 1,000
[6]; [11]
  % PI (Proliferative Index): 94.6%
  MNC (micronucleated cells): 9 ± 2.1 per 1,000
[6]; 0.05 µg/ml, without S9 mix
  % PI (Proliferative Index): 88.2%
  MNC (micronucleated cells): 8.5 ± 0.7 per 1,000
[6]; [12]
  % PI (Proliferative Index): 92.1%
  MNC (micronucleated cells): 9.5 ± 0.7 per 1,000
[6]; 0.1 µg/ml, without S9 mix
  % PI (Proliferative Index): 78.5%
  MNC (micronucleated cells): 11 ± 1.4 per 1,000
[6]; [13]
  % PI (Proliferative Index): 89.2%
  MNC (micronucleated cells): 11.5 ± 2.1 per 1,000
[6]; 0.25 µg/ml, without S9 mix
  % PI (Proliferative Index): 56.1%
  MNC (micronucleated cells): 10 ± 1.4 per 1,000
[6]; 0.5 µg/ml, with UVA/visible Irradiation
  % PI (Proliferative Index): TOXIC
[6]; 0.5 µg/ml, without S9 mix
  % PI (Proliferative Index): TOXIC
  MNC (micronucleated cells): TOXIC
[6]; UVA/visible light exposure
  phototoxicity (in words): Slight phototoxicity
[7]
  MIC: 2 µg/mL
[8]
  MIC: 2 µg/mL
[9]
  Solution state stability (concentration at which visible precipitation was observed): excellent solubility and stability; also recorded: Stable
